# Several values for one entry are separate records, joined by “and”; a condition that tells them apart may be missing. Equal entries are not always repeated.
# Key:
# [1] = tested on: T1, UGT enzymes of human liver microsomes; assay: Inhibition of 7-HFC glucuronidation in human liver microsomes; assay type: biochemical; conditions: inhibitor 500 μM; 7-HFC 50 μM, human liver microsomes 100 μg/ml, 15 min
# T1 construct: percentage of control metabolism, 7-HFC glucuronidation; percentage of control metabolism, 7-HFC glucuronidation
# [2] = tested on: UGT enzymes of human liver microsomes; assay: Inhibition of raloxifene glucuronidation (G1, G2) in human liver microsomes; assay type: biochemical
# Excerpt: Compounds were eluted using a binary solvent gradient system. […] Solvent B was methanol. […] Detection was at 280 nm.
# human liver microsomes [3] = conditions: cited from earlier work
# [4] = humans; cited from earlier work
# [5] = target: T2, UGT enzymes of human liver microsomes (Homo sapiens, UniProt P16662); assay: Inhibition of zidovudine glucuronidation in human liver microsomes; assay type: biochemical; conditions: liver lot 062101
# T2 construct: residual metabolism (percentage of control), zidovudine glucuronidation; other: liver lot 062101; residual metabolism (percentage of control), zidovudine glucuronidation; residual metabolism (percentage of control)
# T2 sequence (P16662 1-529): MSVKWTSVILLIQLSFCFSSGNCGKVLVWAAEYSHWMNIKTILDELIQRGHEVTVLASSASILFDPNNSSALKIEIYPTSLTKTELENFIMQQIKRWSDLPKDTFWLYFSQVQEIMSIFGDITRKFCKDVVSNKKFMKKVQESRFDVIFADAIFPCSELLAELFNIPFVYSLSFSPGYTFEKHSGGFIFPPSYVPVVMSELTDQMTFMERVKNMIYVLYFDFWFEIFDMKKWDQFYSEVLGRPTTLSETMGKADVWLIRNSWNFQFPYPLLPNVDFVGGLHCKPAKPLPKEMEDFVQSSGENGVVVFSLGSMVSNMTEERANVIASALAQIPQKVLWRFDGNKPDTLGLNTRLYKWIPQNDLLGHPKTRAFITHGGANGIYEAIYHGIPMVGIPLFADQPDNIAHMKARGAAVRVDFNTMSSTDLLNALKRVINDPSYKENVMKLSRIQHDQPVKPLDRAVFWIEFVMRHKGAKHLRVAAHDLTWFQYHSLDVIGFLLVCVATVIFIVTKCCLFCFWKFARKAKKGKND
# Procedure: Compounds were eluted using a binary solvent gradient system where solvent A was dilute phosphoric acid (pH 3) and solvent B was acetonitrile.
# Standardized incubations utilized 500 μM zidovudine substrate, 1 mg/ml microsomal protein, 5 mM UDPGA and a 30 min incubation time. […] Int.
# [6] = tested on: UGT enzymes of human liver microsomes; assay: Inhibition of 2ME2 glucuronidation (MG1, MG2) in human liver microsomes; assay type: biochemical; conditions: liver 062101, 2ME2 50 μM
# Excerpt: (§1) Compounds were eluted using a binary solvent gradient system where solvent A was dilute phosphoric acid (pH 3) and solvent B was 80:20 acetonitrile-methanol. […] Detection was at 280 nm.
# [7] = tested on: T3, UGT enzymes of human liver microsomes; assay: as above; assay type: biochemical; conditions: liver 062101, 2ME2 50 μM
# T3 construct: other: liver 062101
# Excerpt: as §1
# [8] = tested on: UGT enzymes of pooled human jejunum microsomes; assay: Inhibition of 2ME2 glucuronidation (MG1) in pooled human jejunum microsomes; assay type: biochemical; conditions: jejunum HJ61, 2ME2 50 μM
# Excerpt: as §1
# in vivo = conditions: female, Sprague-Dawley, rat, po, 10 mg/kg
# Procedure: Female Sprague-Dawley rats (220-250 g body weight) with cannulae inserted into the jugular vein were purchased from Hilltop Animals Inc. (Scottsdale, Pa.). Catheter patency was maintained using a heparin lock. Animals were individually housed at 18-26° C. and allowed free movement and access to water. Rats were fed standard Laboratory Rodent Diet during a minimum 1-day acclimatization period but were fasted from at least 8 h prior to dose administration and were not administered food throughout the study.
# Immediately prior to treatment, the ethanol was removed by nitrogen evaporation and rats were administered 1 ml/kg of each emulsion using a standard gavage needle. […] Blood volume was replaced with saline after each sample. Whole blood samples were collected in Microtainer® tubes (Becton-Dickinson, Franklin Lakes, N.J.) containing sodium EDTA anti-coagulant. Erythrocytes were precipitated by centrifugation (2800 rpm×10-20 min) and plasma samples were stored in the freezer prior to extraction and analysis.
# Plasma samples (100 μl) were extracted by vortex mixing for 60 sec with 200 μl extraction solvent (80% acetonitrile 20% 2 mM NH4OAc pH 9) and 20 μl internal standard solution (1 μM tamoxifen in methanol). […] The lower limit of quantitation was 2 ng/ml.
# [9] = Solubility in microsomal incubation mixtures
# human liver microsomes [10] = assay: Glucuronidation of UGT substrates by human liver microsomes; conditions: for substrate loss, 2ME2: 2ME2 50 μM
# [11] = tested on: pooled human jejunum microsomes; assay: Glucuronidation of UGT substrates by pooled human jejunum microsomes; conditions: jejunum HJ61, 50 μg/ml; 2ME2 50 μM
smiles,measurement,setting,value
"Cc1cn([C@H]2C[C@H](N=[N+]=[N-])[C@@H](CO)O2)c(=O)[nH]c1=O [Zidovudine, zidovudine, reference compound]","% of control metabolism (SD, n = 3), 7-HFC glucuronidation",[1],99 (1) %
same,"% of control metabolism (SD, n = 3), raloxifene glucuronide G1",[2],93 (3) %
same,"% of control metabolism (SD, n = 3), raloxifene glucuronide G2",[2],93 (1) %
same,Km,human liver microsomes [3],3000 to 5000 µM
same,absolute oral bioavailability,[4],65% and 52-75%
"O=C(c1ccc(OCCN2CCCCC2)cc1)c1c(-c2ccc(O)cc2)sc2cc(O)ccc12 [Raloxifene, raloxifene, reference compound]","residual metabolism (percentage of control), zidovudine glucuronidation",[5]; inhibitor 100 μM,76 (3) %
same,"residual metabolism (percentage of control), zidovudine glucuronidation",[5]; inhibitor 200 μM,32 (4) %
same,"residual metabolism (% of control), 2ME2 MG1",[6]; inhibitor 5 μM,77 (1) %
same,"residual metabolism (% of control), 2ME2 MG2",[6]; inhibitor 5 μM,98 (1) %
same,"residual metabolism (% of control), 2ME2 MG1",[6]; inhibitor 10 μM,63 (1) %
same,"residual metabolism (% of control), 2ME2 MG2",[6]; inhibitor 10 μM,88 (0) %
same,"residual metabolism (% of control), 2ME2 MG1",[7]; inhibitor 25 μM,42 (0) %
same,"residual metabolism (% of control), 2ME2 MG2",[7]; inhibitor 25 μM,70 (0) %
same,"residual metabolism (% of control), 2ME2 MG1",[7]; inhibitor 50 μM,32 (2) %
same,"residual metabolism (% of control), 2ME2 MG2",[7]; inhibitor 50 μM,41 (2) %
same,"residual metabolism (% of control), 2ME2 MG1",[7]; inhibitor 100 μM,24 (2) %
same,"residual metabolism (% of control), 2ME2 MG2",[7]; inhibitor 100 μM,20 (1) %
same,"residual metabolism (% of control), 2ME2 MG1",[8]; inhibitor 5 μM,73 (1) %
same,"residual metabolism (% of control), 2ME2 MG1",[8]; inhibitor 10 μM,58 (1) %
same,"residual metabolism (% of control), 2ME2 MG1",[8]; inhibitor 25 μM,31 (3) %
same,"residual metabolism (% of control), 2ME2 MG1",[8]; inhibitor 50 μM,17 (0) %
same,"residual metabolism (% of control), 2ME2 MG1",[8]; inhibitor 100 μM,12 (0) %
same,AUC(0-t),in vivo; Raloxifene AUC0-8,77 ± 61 ng·h/mL
same,AUC(0-t),in vivo; Raloxifene AUC0-24,114 ± 90 ng·h/mL
same,solubility in the microsomal incubation,[9]; 500 μM,insoluble
same,solubility,[9]; microsomal incubation mixtures,100 µM
"COc1cc2c(cc1O)CC[C@@H]1[C@@H]2CC[C@]2(C)[C@@H](O)CC[C@@H]12 [2ME2, 2-Methoxyestradiol]","NADPH-dependent metabolism, in words",cytochrome(s) P450,Negligible NADPH-dependent metabolism
same,total loss of 2ME2 from liver microsomal incubation after 60 min,human liver microsomes [10]; 50 μM substrate,42%
same,"substrate loss, 2ME2","human liver microsomes [10]; liver lot 032101, 250 μg/ml","1,573 ± 243 pmol/min/mg"
same,"substrate loss, 2ME2","human liver microsomes [10]; liver lot 062101, 250 μg/ml","1,035 ± 52 pmol/min/mg"
same,"substrate loss, 2ME2",[11],"19,797 ± 631 pmol/min/mg"

# Reference: patent US20030215462A1, “Use of UGT inhibitors to increase bioavailability” (priority 2001, published 2003)
